# Reference: ChEMBL document CHEMBL5214990, “Novel Aryl Alkamidazole Derivatives as Multifunctional Antifungal Inhibitors: Design, Synthesis, and Biological Evaluation” (J Med Chem, 2022)
# pIC50: −log10 of the molar value. Calls of active or inactive are those of the source. The rule behind the calls is not given here.
# Legend:
# Pichia kudriavzevii = assay: Antifungal activity against Candida krusei ATCC 6258 assessed as inhibition of fungal growth measured after 72 hrs by CLSI based liquid medium dilution method; assay type: functional
# Candida albicans [1] = assay: Induction of mitochondrial membrane depolarization in Candida albicans assessed as fungal cells with depolarized mitochondria measured after 24 hrs by JC-1 staining based flow cytometry (reference value: 3.22%); assay type: functional
# [2] = molecular target: T1, Lanosterol 14-alpha demethylase (Candida albicans (strain SC5314 / ATCC MYA-2876) (Yeast), UniProt P10613); assay: Inhibition of CYP51 in Candida albicans ATCC SC5314 assessed as eburicol content at 4 ug/ml measured after 48 hrs by GC-MS analysis (reference value: 1.84%); set-up: scale not given: the % may be the effect or the level left; conditions: at 4 µg/mL
# T1 sequence (P10613 whole entry): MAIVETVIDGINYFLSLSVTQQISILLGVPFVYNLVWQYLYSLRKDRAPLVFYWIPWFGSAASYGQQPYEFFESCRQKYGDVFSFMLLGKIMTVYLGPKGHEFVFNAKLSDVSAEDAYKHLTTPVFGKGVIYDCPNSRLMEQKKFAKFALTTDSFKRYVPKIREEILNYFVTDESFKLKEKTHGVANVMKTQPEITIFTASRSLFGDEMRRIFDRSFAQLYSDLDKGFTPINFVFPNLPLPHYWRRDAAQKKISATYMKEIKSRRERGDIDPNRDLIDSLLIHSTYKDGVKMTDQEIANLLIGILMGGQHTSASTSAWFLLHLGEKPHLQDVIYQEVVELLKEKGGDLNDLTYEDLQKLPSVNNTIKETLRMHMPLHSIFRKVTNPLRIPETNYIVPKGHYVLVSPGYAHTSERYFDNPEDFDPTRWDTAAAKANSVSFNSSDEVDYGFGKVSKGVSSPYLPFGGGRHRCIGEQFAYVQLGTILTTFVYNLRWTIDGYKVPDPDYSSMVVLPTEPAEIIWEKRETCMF
# Candida albicans [3] = assay: Antifungal activity against Candida albicans ATCC SC5314 assessed as inhibition of fungal growth measured after 72 hrs by CLSI based liquid medium dilution method; assay type: functional
# Candida albicans [4] = assay: Antifungal activity against fluconazole-resistant Candida albicans CaR assessed as inhibition of fungal growth measured after 72 hrs by CLSI based liquid medium dilution method; assay type: functional
# [5] = molecular target: T2, Prostaglandin G/H synthase 2 (Homo sapiens, UniProt P35354); assay: Inhibition of COX2 (unknown origin) assessed as reduction in PGF2alpha content using arachidonic acid as substrate preincubated for 10 mins followed by substrate addition and measured after 2 mins by enzyme immunoassay
# T2 sequence (P35354 whole entry): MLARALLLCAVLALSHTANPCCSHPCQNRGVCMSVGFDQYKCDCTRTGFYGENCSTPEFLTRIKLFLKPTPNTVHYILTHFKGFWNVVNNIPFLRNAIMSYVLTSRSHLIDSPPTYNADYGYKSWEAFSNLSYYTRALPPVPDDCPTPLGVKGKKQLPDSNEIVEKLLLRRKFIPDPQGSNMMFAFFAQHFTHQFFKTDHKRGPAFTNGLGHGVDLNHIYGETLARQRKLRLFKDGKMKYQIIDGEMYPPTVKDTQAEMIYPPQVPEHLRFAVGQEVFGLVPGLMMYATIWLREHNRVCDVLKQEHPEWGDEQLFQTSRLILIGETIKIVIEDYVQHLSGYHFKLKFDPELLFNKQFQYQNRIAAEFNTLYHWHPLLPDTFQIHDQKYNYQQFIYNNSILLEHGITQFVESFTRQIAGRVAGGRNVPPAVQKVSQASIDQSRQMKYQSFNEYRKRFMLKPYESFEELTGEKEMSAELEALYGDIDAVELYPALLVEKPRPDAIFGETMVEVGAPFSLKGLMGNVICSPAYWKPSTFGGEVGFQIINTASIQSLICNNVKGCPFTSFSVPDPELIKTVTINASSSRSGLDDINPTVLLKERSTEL
# Cryptococcus neoformans = assay: Antifungal activity against Cryptococcus neoformans assessed as inhibition of fungal growth measured after 72 hrs by CLSI based liquid medium dilution method; assay type: functional
# [6] = molecular target: T1, Lanosterol 14-alpha demethylase; assay: Inhibition of CYP51 in Candida albicans ATCC SC5314 assessed as ergosterol content at 4 ug/ml measured after 48 hrs by GC-MS analysis (reference value: 95.61%); set-up: scale not given: the % may be the effect or the level left; conditions: at 4 µg/mL
# Candida albicans [7] = assay: Induction of mitochondrial membrane depolarization in Candida albicans assessed as fungal cells with intact mitochondria measured after 24 hrs by JC-1 staining based flow cytometry (reference value: 95.9%); assay type: functional
# [8] = molecular target: T1, Lanosterol 14-alpha demethylase; assay: Inhibition of CYP51 in Candida albicans ATCC SC5314 assessed as unknown sterol content at 4 ug/ml measured after 48 hrs by GC-MS analysis; set-up: scale not given: the % may be the effect or the level left; conditions: at 4 µg/mL
# [9] = Drug uptake in Candida albicans ATCC SC5314 assessed as increase in red and green fluorescence intensity measured after 10 hrs by PI/Hoechst […] staining based fluorescence microscopy; assay type: ADME
# [10] = Increase in intracellular ROS level in Cryptococcus neoformans assessed as fold increase in fluorescence intensity measured after 12 hrs by fluorescence microscopic analysis relative to control; assay type: functional
# Candida albicans [11] = assay: Antifungal activity against fluconazole-resistant Candida albicans 17# assessed as inhibition of fungal growth measured after 72 hrs by CLSI based liquid medium dilution method; assay type: functional
# Candida albicans [12] = assay: Induction of apoptosis in Candida albicans assessed as early apoptotic cells measured after 24 hrs by Annexin V-FITC/PI staining based flow cytometry (reference value: 0.46%); assay type: functional
# [13] = molecular target: T1, Lanosterol 14-alpha demethylase; assay: Inhibition of CYP51 in Candida albicans ATCC SC5314 assessed as reduction in substrate consumption using lanosterol as substrate preincubated for 30 mins followed by substrate addition and measured after 60 mins by HPLC analysis
# Candida albicans [14] = assay: Antifungal activity against fluconazole-resistant Candida albicans 904 assessed as inhibition of fungal growth measured after 72 hrs by CLSI based liquid medium dilution method; assay type: functional
# Candida albicans [15] = assay: Antifungal activity against fluconazole-resistant Candida albicans 901 assessed as inhibition of fungal growth measured after 72 hrs by CLSI based liquid medium dilution method; assay type: functional
# Candida tropicalis = assay: Antifungal activity against Candida tropicalis ATCC 1369 assessed as inhibition of fungal growth measured after 72 hrs by CLSI based liquid medium dilution method; assay type: functional
# Candida albicans [16] = assay: Induction of apoptosis in Candida albicans assessed as late apoptotic cells measured after 24 hrs by Annexin V-FITC/PI staining based flow cytometry (reference value: 0.44%); assay type: functional
# Candida albicans [17] = assay: Antifungal activity against fluconazole-resistant Candida albicans 632 assessed as inhibition of fungal growth measured after 72 hrs by CLSI based liquid medium dilution method; assay type: functional
# [18] = molecular target: T1, Lanosterol 14-alpha demethylase; assay: Inhibition of CYP51 in Candida albicans ATCC SC5314 assessed as lanosterol content at 4 ug/ml measured after 48 hrs by GC-MS analysis; set-up: scale not given: the % may be the effect or the level left; conditions: at 4 µg/mL
# Candida albicans [19] = assay: Induction of apoptosis in Candida albicans assessed as necrotic cells measured after 24 hrs by Annexin V-FITC/PI staining based flow cytometry (reference value: 3.37%); assay type: functional
# Aspergillus fumigatus = assay: Antifungal activity against Aspergillus fumigatus KM8001 assessed as inhibition of fungal growth measured after 72 hrs by CLSI based liquid medium dilution method; assay type: functional
# Candida albicans [20] = assay: Antifungal activity against Candida albicans assessed as inhibition of fungal cell proliferation by measuring decrease in fungal cell density measured after 24 hrs; assay type: functional, organism-based
# [21] = Increase in intracellular ROS level in Candida albicans assessed as fold increase in fluorescence intensity measured after 12 hrs by fluorescence microscopic analysis relative to control; assay type: functional
# Candida albicans [22] = assay: Induction of apoptosis in Candida albicans assessed as viable cells measured after 24 hrs by Annexin V-FITC/PI staining based flow cytometry (reference value: 95.7%); assay type: functional
smiles,measurement,setting,value
C[C@H](C(=O)OC(Cn1ccnc1)c1ccc(F)cc1)c1ccc(-c2ccccc2)c(F)c1 (stereo partly specified),MIC50,Pichia kudriavzevii,0.125 µg/mL
same,Activity,Candida albicans [1],52.9%
same,Activity,[2],39.58%
same,MIC50,Candida albicans [3],0.25 µg/mL
same,MIC50,Candida albicans [4],2 µg/mL
same,pIC50,[5],5.42
same,MIC50,Cryptococcus neoformans,0.5 µg/mL
same,Activity,[6],21.84%
same,Activity,Candida albicans [7],46.6%
same,Activity,[8],5.06%
same,Drug uptake,[9],Active
same,fold change (FC),[10],4
same,MIC50,Candida albicans [11],4 µg/mL
same,Activity,Candida albicans [12],0.086%
same,pIC50,[13],6.46
same,MIC50,Candida albicans [14],2 µg/mL
same,MIC50,Candida albicans [15],2 µg/mL
same,MIC50,Candida tropicalis,0.25 µg/mL
same,Activity,Candida albicans [16],1.06%
same,MIC50,Candida albicans [17],4 µg/mL
same,Activity,[18],33.52%
same,Activity,Candida albicans [19],32.7%
same,MIC50,Aspergillus fumigatus,2 µg/mL
same,Activity,Candida albicans [20],Active
same,fold change (FC),[21],4
same,Activity,Candida albicans [22],66.2%
